Common to all, as to design: species or system AML cell lines (8); Primary HTS, single concentration about 10 uM, Cell Titer Glo viability; log10 luminescence, per cent inhibition relative to cycloheximide control
Holding throughout (conditions): 72 h, relative to cycloheximide control, log10 luminescence, inhibitor
In general terms: In ATP-based viability assays light output follows the ATP content of the culture.

Test [1] has as its system CHRF288-11.
The subject of test [2] is CMK.
In test [3] the test system is CMS.
Test [4] relates to M07e.
Test [5] deals with ML-2.
The subject of test [6] is MOLM-13.
Test [7] concerns MV4-11.
For test [8], the system named is U937.

The structures appear in SMILES notation. Read-outs that look alike come from different tables or passages of the source.

Take `O=C1NC(=NCc2ccccn2)S/C1=C\c1ccc2ncccc2c1` [SJ000581006-1]: the CHRF288-11 %inh in test [1] is recorded as -1.509%. In test [2], the CMK %inh turned out to be 2.326%. The CMS %inh in test [3] is recorded as -0.1401%. The molecule further gave an M07e %inh in test [4] of 3.262%. Besides, in test [5], the ML-2 %inh was -0.04041%. Further, the MOLM-13 %inh in test [6] was found to be 6.642%. In addition, the MV4-11 %inh in test [7] amounted to 1.986%. This molecule yielded a U937 %inh in test [8] of 2.876%.

For the molecule `CO[C@H]1/C=C/O[C@@]2(C)Oc3c(C)c(O)c4c(O)c(c(/C=N/N5CCN(C6CCCC6)CC5)c(O)c4c3C2=O)NC(=O)/C(C)=C\C=C\[C@H](C)[C@H](O)[C@@H](C)[C@@H](O)[C@@H](C)[C@H](OC(C)=O)[C@@H]1C` [SJ000556738-1, RIFAPENTINE], the CHRF288-11 %inh in test [1] (CHRF288-11 %inh, 10 µM) is listed as -0.1419%. In addition, the CMK %inh in test [2] (CMK %inh, 10 µM) is -0.8493%. In addition, in test [3] (CMS %inh, 10 µM), the CMS %inh was determined as 9.958%. This molecule also returned an M07e %inh in test [4] (M07e %inh, 10 µM) of 1.814%. For the same molecule, in test [5] (ML-2 %inh, 10 µM), the ML-2 %inh worked out at 6.792%. This molecule also showed an MOLM-13 %inh in test [6] (MOLM-13 %inh, 10 µM) of 5.251%. In addition, the MV4-11 %inh in test [7] (MV4-11 %inh, 10 µM) turned out to be 4.97%. The molecule further displayed a U937 %inh in test [8] (U937 %inh, 10 µM) of 33.42%.

As to `COC(=O)Nc1nc2cc(Oc3ccc(NC(=O)Nc4cccc(C(=O)O)c4)cc3)ccc2[nH]1` [SJ000573163-1, T261/87/3], the CHRF288-11 %inh in test [1] was determined as 17.31%. Besides, the CMK %inh in test [2] amounted to 83.28%. Besides, in test [3], the CMS %inh worked out at 3.532%. In test [4], this molecule yielded an M07e %inh of 13.83%. The ML-2 %inh in test [5] is recorded as 30.21%. In test [6], this molecule gave an MOLM-13 %inh of 34.2%. Also, the MV4-11 %inh in test [7] is 11.57%. Further, the U937 %inh in test [8] came out at 31.9%.

As for `C[C@@H]1C[C@H]2[C@@H]3C[C@H](F)C4=CC(=O)C=C[C@]4(C)[C@@]3(F)[C@@H](O)C[C@]2(C)[C@@]1(OC(=O)c1ccco1)C(=O)SCF` [SJ000556747-1, FLUTICASONE FUROATE], the CHRF288-11 %inh in test [1] is on record as 5.244%. Further, the CMK %inh in test [2] amounted to 4.028%. The CMS %inh in test [3] was determined as 42.17%. In test [4], this molecule gave an M07e %inh of 0.03036%. Besides, in test [5], the ML-2 %inh was 5.949%. Also, the MOLM-13 %inh in test [6] was found to be 2.731%. Further, the MV4-11 %inh in test [7] came to 10.07%. The molecule further came in with a U937 %inh in test [8] of 15.51%.

As to `COc1ccc(CNC(=O)c2ccc(-c3cc(-c4nnc(C)o4)ccc3C)cc2)cc1` [SJ000573240-1, R5419/62/2], the CHRF288-11 %inh in test [1] is on record as 2.517%. Further, the CMK %inh in test [2] is listed as -2.585%. In addition, the CMS %inh in test [3] is recorded as -0.9608%. The M07e %inh in test [4] worked out at 1.245%. The ML-2 %inh in test [5] came to 2.422%. The molecule also showed an MOLM-13 %inh in test [6] of 2.636%. Besides, in test [7], the MV4-11 %inh was -0.02622%. Moreover, in test [8], the U937 %inh was determined as 0.2137%.

On to `CN1CCC(C(=O)Nc2n[nH]c3nc(-c4ccc(O)cc4)c(Br)cc23)CC1` [SJ000573086-2, RW100084-040A1 | AN100368-077A1], for which the CHRF288-11 %inh in test [1] (CHRF288-11 %inh, 10 µM) worked out at 68.5%. Besides, in test [2] (CMK %inh, 10 µM), the CMK %inh came to 69.83%. Moreover, in test [3] (CMS %inh, 10 µM), the CMS %inh was 94.2%. This molecule also had an M07e %inh in test [4] (M07e %inh, 10 µM) of 63.44%. Moreover, the ML-2 %inh in test [5] (ML-2 %inh, 10 µM) is 61.94%. In addition, the MOLM-13 %inh in test [6] (MOLM-13 %inh, 10 µM) is reported as 108.5%. In addition, the MV4-11 %inh in test [7] (MV4-11 %inh, 10 µM) was 86.37%. The molecule also came in with a U937 %inh in test [8] (U937 %inh, 10 µM) of 85.17%.

Take `CC1=C(C(=O)Nc2ccc3[nH]ncc3c2)C(c2ccc3ccccc3c2)CC(=O)N1` (centres unmarked) [SJ000573139-1, KG204183-124A1]: in test [1], the CHRF288-11 %inh came to 15.76%. In addition, the CMK %inh in test [2] is recorded as 48.89%. The CMS %inh in test [3] is given as 1.368%. For the same molecule, the M07e %inh in test [4] is 1.439%. For the same molecule, the ML-2 %inh in test [5] is reported as 11.01%. For the same molecule, the MOLM-13 %inh in test [6] is listed as 1.247%. For the same molecule, the MV4-11 %inh in test [7] is 30.46%. This molecule also returned a U937 %inh in test [8] of 2.011%.
